Reference: ChEMBL document CHEMBL3867480 (Bioorg Med Chem, 2016)
pIC50: −log10 of the molar value. ≈ marks a conversion by molar mass, not a printed value.

Legend:
[1] = biological target: Matrix metalloproteinase-14 (Homo sapiens, UniProt P50281); experiment: Inhibition of recombinant human GST-tagged MMP14 using Cy3-PLGLK(Cy5Q)AR-NH2 as substrate measured after 40 mins by spectrofluorimetric method
[2] = biological target: 72 kDa type IV collagenase (Homo sapiens, UniProt P08253); experiment: Inhibition of recombinant human […]-activated MMP2 using Cy3-PLGLK(Cy5Q)AR-NH2 as substrate measured after 40 mins by spectrofluorimetric method
Neutrophil collagenase = Neutrophil collagenase (Homo sapiens, UniProt P22894); experiment: Inhibition of recombinant human […]-activated MMP8 using Cy3-PLGLK(Cy5Q)AR-NH2 as substrate measured after 40 mins by spectrofluorimetric method
Interstitial collagenase = biological target: T1, Interstitial collagenase (Homo sapiens, UniProt P03956); experiment: Inhibition of recombinant human […]-activated MMP1 using Cy3-PLGLK(Cy5Q)AR-NH2 as substrate measured after 40 mins by spectrofluorimetric method
T1 sequence (P03956 whole entry): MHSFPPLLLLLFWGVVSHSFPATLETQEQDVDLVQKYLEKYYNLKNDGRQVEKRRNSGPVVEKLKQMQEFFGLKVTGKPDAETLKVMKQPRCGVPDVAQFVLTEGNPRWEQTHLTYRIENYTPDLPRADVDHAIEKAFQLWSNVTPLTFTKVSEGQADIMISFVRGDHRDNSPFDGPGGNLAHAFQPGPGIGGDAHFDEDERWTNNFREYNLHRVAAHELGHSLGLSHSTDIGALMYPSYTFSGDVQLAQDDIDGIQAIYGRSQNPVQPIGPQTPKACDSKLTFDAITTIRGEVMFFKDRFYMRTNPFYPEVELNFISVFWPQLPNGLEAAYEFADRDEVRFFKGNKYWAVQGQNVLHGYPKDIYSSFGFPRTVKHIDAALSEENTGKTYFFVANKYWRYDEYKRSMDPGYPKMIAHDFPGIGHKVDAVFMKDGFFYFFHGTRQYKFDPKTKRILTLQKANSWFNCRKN

[3] = biological target: Disintegrin and metalloproteinase domain-containing protein 17 (Homo sapiens, UniProt P78536); experiment: Inhibition of recombinant human TACE using Cy3-PLAQAV(Cy5Q-L-2,3-diaminopropionic acid)-RSSSR-NH2 as substrate measured after 40 mins by spectrofluorimetric method
[4] = biological target: Matrix metalloproteinase-9 (Homo sapiens, UniProt P14780); experiment: Inhibition of recombinant human […]-activated MMP9 using Cy3-PLGLK(Cy5Q)AR-NH2 as substrate measured after 40 mins by spectrofluorimetric method
Stromelysin-2 = Stromelysin-2 (Homo sapiens, UniProt P09238); experiment: Inhibition of recombinant human […]-activated MMP10 using Cy3-PLGLK(Cy5Q)AR-NH2 as substrate measured after 40 mins by spectrofluorimetric method
[5] = biological target: Macrophage metalloelastase (Homo sapiens, UniProt P39900); experiment: Inhibition of recombinant human […]-activated MMP12 using Cy3-PLGLK(Cy5Q)AR-NH2 as substrate measured after 40 mins by spectrofluorimetric method
Stromelysin-1 = Stromelysin-1 (Homo sapiens, UniProt P08254); experiment: Inhibition of recombinant human […]-activated MMP3 using Cy3-PLGLK(Cy5Q)AR-NH2 as substrate measured after 40 mins by spectrofluorimetric method
Matrilysin = biological target: T2, Matrilysin (Homo sapiens, UniProt P09237); experiment: Inhibition of recombinant human […]-activated MMP7 using Cy3-PLGLK(Cy5Q)AR-NH2 as substrate measured after 40 mins by spectrofluorimetric method
T2 sequence (P09237 whole entry): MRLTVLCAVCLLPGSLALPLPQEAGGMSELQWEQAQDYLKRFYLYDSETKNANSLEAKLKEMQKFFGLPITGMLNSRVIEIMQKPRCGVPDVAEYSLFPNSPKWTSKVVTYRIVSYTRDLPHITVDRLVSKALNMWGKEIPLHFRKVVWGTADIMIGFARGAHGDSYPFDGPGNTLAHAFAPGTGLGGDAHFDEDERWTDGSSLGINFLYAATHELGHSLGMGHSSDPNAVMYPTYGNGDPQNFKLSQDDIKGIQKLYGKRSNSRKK

Collagenase 3 = Collagenase 3 (Homo sapiens, UniProt P45452)
Description: Inhibition of recombinant human AMPA-activated MMP13 using Cy3-PLGLK(Cy5Q)AR-NH2 as substrate measured after 40 mins by spectrofluorimetric method

[6] = Clearance in rat liver microsomes; format: ADME; conditions: read-out: CLH
[7] = Oral bioavailability in rat at 1 mg/kg; format: ADME, organism-based; conditions: in vivo
[8] = Clearance in rat at 0.1 mg/kg, iv or 1 mg/kg, po; format: ADME, organism-based; conditions: in vivo
CYP3A4 = CYP3A4 (Homo sapiens, UniProt P08684); experiment: Inhibition of CYP3A4 (unknown origin) at 10 uM; format: ADME
[9] = Permeability of the compound at pH 7.4 by PAMPA assay; format: ADME; conditions: read-out: permeability
[10] = Clearance in human liver microsomes; format: ADME; conditions: read-out: CLH
[11] = Solubility of the compound at pH 6.8; format: physicochemical; conditions: buffer
[12] = Volume of distribution in rat at 0.1 mg/kg, iv or 1 mg/kg, po; format: ADME, organism-based; conditions: in vivo

Sequence of CYP3A4 (P08684 whole entry): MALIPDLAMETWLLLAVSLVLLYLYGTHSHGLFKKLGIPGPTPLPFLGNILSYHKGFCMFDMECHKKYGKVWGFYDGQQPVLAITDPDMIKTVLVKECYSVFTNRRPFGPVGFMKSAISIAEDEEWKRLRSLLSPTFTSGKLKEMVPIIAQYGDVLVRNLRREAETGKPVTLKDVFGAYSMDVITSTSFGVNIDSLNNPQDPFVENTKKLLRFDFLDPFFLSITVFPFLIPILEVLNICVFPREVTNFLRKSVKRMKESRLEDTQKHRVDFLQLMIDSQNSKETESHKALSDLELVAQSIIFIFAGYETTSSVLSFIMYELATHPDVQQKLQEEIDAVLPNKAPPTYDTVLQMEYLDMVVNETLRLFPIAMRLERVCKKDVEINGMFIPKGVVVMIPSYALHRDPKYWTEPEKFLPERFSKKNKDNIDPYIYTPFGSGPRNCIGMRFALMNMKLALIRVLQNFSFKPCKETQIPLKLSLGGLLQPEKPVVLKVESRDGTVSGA
Sequence of Neutrophil collagenase (P22894 whole entry): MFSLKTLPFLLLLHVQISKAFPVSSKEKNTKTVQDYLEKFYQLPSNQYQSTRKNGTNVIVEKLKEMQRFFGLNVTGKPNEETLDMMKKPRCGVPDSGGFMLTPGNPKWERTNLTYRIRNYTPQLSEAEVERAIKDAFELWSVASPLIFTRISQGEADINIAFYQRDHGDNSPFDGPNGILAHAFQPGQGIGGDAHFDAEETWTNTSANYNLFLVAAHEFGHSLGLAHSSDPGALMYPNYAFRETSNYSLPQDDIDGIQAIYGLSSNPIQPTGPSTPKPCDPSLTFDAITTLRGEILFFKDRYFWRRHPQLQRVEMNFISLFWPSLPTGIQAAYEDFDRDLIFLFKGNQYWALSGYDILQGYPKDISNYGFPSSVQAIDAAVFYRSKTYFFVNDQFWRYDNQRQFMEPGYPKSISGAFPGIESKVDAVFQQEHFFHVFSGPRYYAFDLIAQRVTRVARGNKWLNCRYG
Sequence of Disintegrin and metalloproteinase domain-containing protein 17 (P78536 whole entry, the tested form may be a part): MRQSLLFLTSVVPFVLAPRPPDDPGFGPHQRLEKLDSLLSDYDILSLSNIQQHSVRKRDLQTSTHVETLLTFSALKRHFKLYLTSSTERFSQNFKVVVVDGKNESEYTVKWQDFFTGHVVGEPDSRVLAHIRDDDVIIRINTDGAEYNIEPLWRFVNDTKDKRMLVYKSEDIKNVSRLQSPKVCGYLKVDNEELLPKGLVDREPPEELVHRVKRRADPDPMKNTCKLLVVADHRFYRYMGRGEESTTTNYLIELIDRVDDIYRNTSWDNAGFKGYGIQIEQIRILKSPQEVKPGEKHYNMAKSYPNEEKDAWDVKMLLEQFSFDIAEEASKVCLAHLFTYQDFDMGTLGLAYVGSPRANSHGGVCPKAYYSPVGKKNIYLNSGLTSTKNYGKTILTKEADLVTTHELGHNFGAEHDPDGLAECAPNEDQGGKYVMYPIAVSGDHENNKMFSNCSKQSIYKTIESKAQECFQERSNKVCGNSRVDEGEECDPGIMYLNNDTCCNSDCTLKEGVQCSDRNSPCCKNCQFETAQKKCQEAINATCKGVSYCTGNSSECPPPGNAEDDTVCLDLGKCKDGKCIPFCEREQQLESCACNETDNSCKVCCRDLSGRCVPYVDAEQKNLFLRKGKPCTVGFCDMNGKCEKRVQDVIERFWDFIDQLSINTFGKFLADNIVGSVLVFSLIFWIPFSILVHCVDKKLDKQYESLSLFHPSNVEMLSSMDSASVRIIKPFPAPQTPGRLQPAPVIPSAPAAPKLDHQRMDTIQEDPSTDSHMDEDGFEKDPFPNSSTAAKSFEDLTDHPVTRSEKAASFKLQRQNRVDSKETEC
Sequence of 72 kDa type IV collagenase (P08253 whole entry): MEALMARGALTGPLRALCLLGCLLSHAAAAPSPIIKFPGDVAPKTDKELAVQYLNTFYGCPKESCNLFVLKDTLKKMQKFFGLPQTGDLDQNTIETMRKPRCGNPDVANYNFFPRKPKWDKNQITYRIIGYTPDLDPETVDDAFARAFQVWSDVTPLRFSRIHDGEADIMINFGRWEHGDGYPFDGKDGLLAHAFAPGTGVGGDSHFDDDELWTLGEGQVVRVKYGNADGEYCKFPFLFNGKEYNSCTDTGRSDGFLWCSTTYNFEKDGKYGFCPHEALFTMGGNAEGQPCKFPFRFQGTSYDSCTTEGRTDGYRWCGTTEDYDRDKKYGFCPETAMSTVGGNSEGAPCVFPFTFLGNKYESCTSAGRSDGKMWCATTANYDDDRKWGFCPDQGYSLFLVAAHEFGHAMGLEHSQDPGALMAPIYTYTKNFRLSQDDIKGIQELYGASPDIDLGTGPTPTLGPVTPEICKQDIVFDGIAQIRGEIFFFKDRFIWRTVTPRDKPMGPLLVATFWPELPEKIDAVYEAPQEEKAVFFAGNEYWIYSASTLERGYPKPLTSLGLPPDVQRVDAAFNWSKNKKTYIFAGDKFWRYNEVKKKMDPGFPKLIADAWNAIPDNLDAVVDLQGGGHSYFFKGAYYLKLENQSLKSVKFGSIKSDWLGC
Sequence of Stromelysin-1 (P08254 whole entry): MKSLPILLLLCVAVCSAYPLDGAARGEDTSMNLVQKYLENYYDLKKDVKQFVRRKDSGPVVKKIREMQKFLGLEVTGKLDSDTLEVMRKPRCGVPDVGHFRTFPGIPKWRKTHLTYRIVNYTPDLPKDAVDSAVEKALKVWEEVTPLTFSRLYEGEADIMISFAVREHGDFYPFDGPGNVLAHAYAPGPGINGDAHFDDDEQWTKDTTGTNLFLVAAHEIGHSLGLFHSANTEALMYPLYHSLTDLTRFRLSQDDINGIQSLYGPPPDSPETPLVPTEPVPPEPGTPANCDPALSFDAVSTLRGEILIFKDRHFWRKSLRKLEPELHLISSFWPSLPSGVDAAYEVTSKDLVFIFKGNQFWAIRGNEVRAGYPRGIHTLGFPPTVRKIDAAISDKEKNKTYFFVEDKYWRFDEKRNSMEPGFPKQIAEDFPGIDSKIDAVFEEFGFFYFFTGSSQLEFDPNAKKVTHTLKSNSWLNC
Sequence of Matrix metalloproteinase-9 (P14780 whole entry): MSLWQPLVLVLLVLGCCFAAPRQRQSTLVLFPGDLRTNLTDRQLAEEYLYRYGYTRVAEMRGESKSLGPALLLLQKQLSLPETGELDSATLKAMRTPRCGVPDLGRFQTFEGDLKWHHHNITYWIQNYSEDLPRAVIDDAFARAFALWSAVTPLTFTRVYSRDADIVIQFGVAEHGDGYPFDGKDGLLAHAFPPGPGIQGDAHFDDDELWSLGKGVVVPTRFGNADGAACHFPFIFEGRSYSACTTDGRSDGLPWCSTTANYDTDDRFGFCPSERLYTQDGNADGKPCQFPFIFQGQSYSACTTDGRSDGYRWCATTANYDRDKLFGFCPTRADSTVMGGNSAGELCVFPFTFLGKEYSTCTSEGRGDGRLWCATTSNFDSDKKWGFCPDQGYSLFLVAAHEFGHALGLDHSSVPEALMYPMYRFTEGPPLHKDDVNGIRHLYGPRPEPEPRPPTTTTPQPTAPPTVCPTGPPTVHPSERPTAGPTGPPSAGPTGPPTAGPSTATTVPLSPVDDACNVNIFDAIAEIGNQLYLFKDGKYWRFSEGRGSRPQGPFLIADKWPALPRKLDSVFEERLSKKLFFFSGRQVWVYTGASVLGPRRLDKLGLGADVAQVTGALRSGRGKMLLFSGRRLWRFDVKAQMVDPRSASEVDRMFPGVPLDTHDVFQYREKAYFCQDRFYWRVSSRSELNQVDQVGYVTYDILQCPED
Sequence of Stromelysin-2 (P09238 whole entry): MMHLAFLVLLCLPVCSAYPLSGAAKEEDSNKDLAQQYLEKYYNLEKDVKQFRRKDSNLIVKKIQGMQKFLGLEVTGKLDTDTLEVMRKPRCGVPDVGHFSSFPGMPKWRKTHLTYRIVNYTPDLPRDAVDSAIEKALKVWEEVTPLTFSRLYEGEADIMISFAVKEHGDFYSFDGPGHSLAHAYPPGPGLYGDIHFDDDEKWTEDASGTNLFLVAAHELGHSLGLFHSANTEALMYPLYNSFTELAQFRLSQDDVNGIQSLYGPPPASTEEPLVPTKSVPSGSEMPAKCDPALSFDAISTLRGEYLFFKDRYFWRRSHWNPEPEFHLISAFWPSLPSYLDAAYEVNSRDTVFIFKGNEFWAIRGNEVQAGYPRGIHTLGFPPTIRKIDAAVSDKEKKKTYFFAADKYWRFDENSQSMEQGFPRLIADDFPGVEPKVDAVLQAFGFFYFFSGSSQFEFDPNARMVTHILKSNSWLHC
Sequence of Macrophage metalloelastase (P39900 whole entry): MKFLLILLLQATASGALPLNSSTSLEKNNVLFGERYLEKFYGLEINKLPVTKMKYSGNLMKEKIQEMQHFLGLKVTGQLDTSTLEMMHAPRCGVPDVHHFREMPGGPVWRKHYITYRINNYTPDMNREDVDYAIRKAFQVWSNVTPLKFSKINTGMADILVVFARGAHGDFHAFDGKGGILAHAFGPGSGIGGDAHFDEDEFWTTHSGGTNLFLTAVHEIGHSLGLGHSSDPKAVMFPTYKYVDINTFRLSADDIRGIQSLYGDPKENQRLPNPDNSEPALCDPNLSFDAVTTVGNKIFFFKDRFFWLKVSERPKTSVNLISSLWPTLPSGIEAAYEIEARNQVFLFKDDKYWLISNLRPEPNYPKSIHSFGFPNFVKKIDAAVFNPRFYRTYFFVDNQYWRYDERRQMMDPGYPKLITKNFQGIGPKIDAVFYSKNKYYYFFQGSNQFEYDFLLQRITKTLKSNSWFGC

| SMILES | pIC50 [1] | pIC50 [2] | pIC50 (Neutrophil collagenase) | pIC50 (Interstitial collagenase) | pIC50 [3] | pIC50 [4] | pIC50 (Stromelysin-2) | pIC50 [5] | pIC50 (Stromelysin-1) | pIC50 (Matrilysin) | pIC50 (Collagenase 3) | microsomal CLint [6] [µL/min/mg] | bioavailability [7] [%] | clearance [8] [mL/min/kg] | inhibition at 10 µM (CYP3A4) [%] | Papp [9] [×10⁻⁶ cm/s] | microsomal CLint [10] [µL/min/mg] | solubility [11] [µg/mL] | Vd [12] [L/kg] |
| --- | --- | --- | --- | --- | --- | --- | --- | --- | --- | --- | --- | --- | --- | --- | --- | --- | --- | --- | --- |
| O=C(NCc1cccc(OCCCS(=O)(=O)N2CCCCC2C(=O)O)c1)c1nc2ccccc2c(=O)[nH]1 (stereo not given) | < 5.00 | 7.85 | 7.85 | < 5.00 | < 5.00 | < 5.00 | 6.62 | 6.52 | 6.43 | < 5.00 | 9.62 |  |  |  |  |  |  |  |  |
| O=C(NCc1cccc(-c2ccc(CS(=O)(=O)Cc3n[nH]c(=O)[nH]3)cc2)c1)c1nc2ccccc2c(=O)[nH]1 | < 5.00 | 7.64 | 7.92 | < 5.00 | < 5.00 | < 5.00 | 6.82 | 5.02 | 5.62 | < 5.00 | 10.15 | 13 | 1.3 | 5.38 | 29 | 0.7 | 7 | 0.48 (≈ 0.905 µM) | 0.32 |
| O=C(NCc1cccc(N2CCN(C(=O)Cc3c[nH]cn3)CC2)c1)c1nc2ccccc2c(=O)[nH]1 |  | 6.92 | 7.35 |  |  |  | 6.34 |  |  |  | 8.77 |  |  |  |  |  |  |  |  |
| O=C(NCc1cccc(OCCCS(=O)(=O)N2CCCCC2C(=O)NO)c1)c1nc2ccccc2c(=O)[nH]1 (stereo not given) | 6.26 | 9.24 | 8.92 | < 5.00 | 6.29 | 7.14 | 8.59 | 8.74 | 8.59 | 5.70 | 10.28 |  |  |  |  |  |  |  |  |
| CC(=O)N(O)C(CS(=O)(=O)c1ccc(-c2cccc(CNC(=O)c3nc4ccccc4c(=O)[nH]3)c2)cc1)C(C)C (stereo not given) |  | 7.19 | 6.96 |  |  |  | 7.19 |  |  |  | 9.52 | 250 | < 1 | < 0.0167 | 99 | 45.2 | 250 | 0.93 (≈ 1.65 µM) |  |
| O=C(NCc1cccc(-c2ccc(CS(=O)(=O)Cc3n[nH]c(=O)[nH]3)cc2)c1)c1nc2scc(-c3cccc(Cl)c3)c2c(=O)[nH]1 |  | 7.07 | 6.00 |  |  |  | 7.47 |  |  |  | 9.42 |  |  |  |  |  |  |  |  |
| O=C(NCc1cccc(OCCCOc2nc[nH]n2)c1)c1nc2ccccc2c(=O)[nH]1 |  | 7.49 | 7.66 |  |  |  | 6.66 |  |  |  | 9.23 |  |  |  |  |  |  |  |  |
| COc1cccc(CNC(=O)c2nc3ccccc3c(=O)[nH]2)c1 |  |  |  |  |  |  |  |  |  |  | 7.92 to 8.25 |  |  |  |  |  |  |  |  |
| CC(C)[C@H](NS(=O)(=O)c1ccc(-c2cccc(CNC(=O)c3nc4ccccc4c(=O)[nH]3)c2)cc1)C(=O)NO | 8.42 | 8.72 | 9.09 | 7.96 | < 5.00 | 8.33 | 9.52 | 8.09 | 8.82 | 8.14 | 11.49 |  |  |  |  |  |  |  |  |
| O=C(NCc1cccc(OCCCOc2nc[nH]n2)c1)c1nc2scc(-c3cccc(Cl)c3)c2c(=O)[nH]1 |  | 6.29 | < 6.00 |  |  |  | 6.09 |  |  |  |  |  |  |  |  |  |  |  |  |
| O=C1NC(=O)C(CC(=O)N2CCN(c3cccc(CNC(=O)c4nc5ccccc5c(=O)[nH]4)c3)CC2)N1 (stereo not given) |  | > 8.00 | > 8.00 |  |  |  | > 8.00 |  |  |  | 9.72 |  |  |  |  |  |  |  |  |
| CCOCCC1(Oc2ccc(-c3cccc(CNC(=O)c4nc5ccccc5c(=O)[nH]4)c3)cc2)C(=O)NC(=O)NC1=O | 5.43 | 6.96 | 7.25 | < 5.00 | < 5.00 | 5.80 | 6.03 | 6.27 | 5.48 | < 5.00 | 9.64 |  | 32 | 0.35 | 22 | 9.5 | 12 | 9.1 (≈ 16 µM) | 0.054 |
| O=C(NCc1cccc(N2CCN(C(=O)Cc3n[nH]c(=O)[nH]3)CC2)c1)c1nc2ccccc2c(=O)[nH]1 | 5.05 | 8.00 | 8.41 | < 5.00 | < 5.00 | 5.54 | 8.21 | 6.59 | 7.64 | < 5.00 | 9.96 |  |  |  |  |  |  |  |  |
| O=C(NCc1cccc(N2CCN(C(=O)Cc3cc(=O)[nH][nH]3)CC2)c1)c1nc2ccccc2c(=O)[nH]1 |  | > 8.00 | > 8.00 |  |  |  | > 8.00 |  |  |  | 9.44 |  |  |  |  |  |  |  |  |
| O=C(NCc1cccc(N2CCN(C(=O)Cc3nnn[nH]3)CC2)c1)c1nc2ccccc2c(=O)[nH]1 |  | 6.80 | 7.49 |  |  |  | 6.19 |  |  |  | 8.82 |  |  |  |  |  |  |  |  |
| CC(C)[C@H](NS(=O)(=O)c1ccc(-c2cccc(CNC(=O)c3nc4ccccc4c(=O)[nH]3)c2)cc1)C(=O)O | 6.85 | 8.08 | 8.05 | 5.47 | < 5.00 | 7.44 | 8.62 | 7.80 | 7.52 | 6.00 | 9.77 |  |  |  |  |  |  |  |  |
| COc1cccc(CNC(=O)c2nc3scc(-c4cccc(Cl)c4)c3c(=O)[nH]2)c1 |  | 5.59 | < 5.00 |  |  |  | 5.20 |  |  |  | 9.92 |  |  |  |  |  |  |  |  |
| CC(C)C(CS(=O)(=O)c1ccc(-c2cccc(CNC(=O)c3nc4ccccc4c(=O)[nH]3)c2)cc1)N(O)C(N)=O (stereo not given) |  | > 8.00 | 7.72 |  |  |  | > 8.00 |  |  |  | 9.59 |  |  |  |  |  |  |  |  |
| CC(C)C(CS(=O)(=O)c1ccc(-c2cccc(CNC(=O)c3nc4ccccc4c(=O)[nH]3)c2)cc1)N(O)C=O (stereo not given) | 8.27 | 8.52 | 8.89 | 7.74 | < 5.00 | 8.28 | 9.46 | 8.07 | 8.60 | 7.52 | 10.29 |  |  |  |  |  |  |  |  |
